# In PubChem BioAssay (NCI):
#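 Values below derive from 48-hour exposures of cells grown in 96-well plates, with endpoints linearly interpolated between the two concentrations bracketing the appropriate inhibition level. The concentration for full growth arrest is given as TGI.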
# How the values were obtained:
# Assay in all cases: NCI tumour cell line growth inhibition, 48 h
# [1] = test system: RXF 393 renal
# [2] = test system: KM20L2 colon
# [3] = test system: HOP-92 NSCLC
# [4] = test system: DMS 114 small cell lung
# [5] = test system: TK-10 renal
# [6] = test system: OVCAR-8 ovarian
# [7] = test system: SNB-19 CNS
# [8] = test system: OVCAR-3 ovarian
# [9] = test system: NCI-H522 lung
# [10] = test system: SW-620 colon
# [11] = test system: XF 498 CNS
# [12] = test system: RXF-631 renal
# [13] = test system: U251 CNS
# [14] = test system: A498 renal
# [15] = test system: UACC-257 melanoma
# [16] = test system: LXFL 529 NSCLC
# [17] = test system: SF-539 CNS
# [18] = test system: NCI-H23 lung
# [19] = test system: UO-31 renal
# [20] = test system: SF-268 CNS
# [21] = test system: HCC-2998 colon
# [22] = test system: OVCAR-5 ovarian
# [23] = test system: NCI-H460 lung
# [24] = test system: SN12C renal
# [25] = test system: SNB-78 CNS
# [26] = test system: DMS 273 small cell lung
# [27] = test system: IGROV1 ovarian
# [28] = test system: M19-MEL melanoma
# [29] = test system: EKVX NSCLC
# [30] = test system: DLD-1 colon
# [31] = test system: SK-MEL-2 melanoma
# [32] = test system: ACHN renal
# [33] = test system: MALME-3M melanoma
# [34] = test system: SK-MEL-5 melanoma
# [35] = test system: HCT-15 colon
# [36] = test system: MOLT-4 leukemia
# [37] = test system: UACC-62 melanoma
# [38] = test system: A549 NSCLC
# [39] = test system: SF-295 CNS
# [40] = test system: CCRF-CEM leukemia
# [41] = test system: CAKI-1 renal
# [42] = test system: HCT-116 colon
# [43] = test system: SR leukemia
# [44] = test system: SK-MEL-28 melanoma
# [45] = test system: RPMI-8226 leukemia
# [46] = test system: HL-60(TB) leukemia
# [47] = test system: HT29 colon
# [48] = test system: K-562 leukemia
# [49] = test system: NCI-H226 lung
# [50] = test system: OVCAR-4 ovarian
# [51] = test system: LOX IMVI melanoma
# [52] = test system: M14 melanoma
# [53] = test system: 786-0 renal
# [54] = test system: SNB-75 CNS
# [55] = test system: KM12 colon
# [56] = test system: SK-OV-3 ovarian
# [57] = test system: HOP-62 NSCLC
# [58] = test system: HOP-18 NSCLC
# [59] = test system: COLO 205 colon
structure (smiles),measurement,setting,value
O=c1/c(=C/c2ccccc2F)sc2nc3ccccc3n12,TGI,[1],> 100 µM
same,TGI,[2],> 100 µM
same,TGI,[3],> 100 µM
same,TGI,[4],> 100 µM
same,TGI,[5],> 100 µM
same,TGI,[6],> 100 µM
same,TGI,[7],> 100 µM
same,TGI,[8],> 100 µM
same,TGI,[9],> 100 µM
same,TGI,[10],> 100 µM
same,TGI,[11],> 100 µM
same,TGI,[12],> 100 µM
same,TGI,[13],> 100 µM
same,TGI,[14],> 100 µM
same,TGI,[15],> 100 µM
same,TGI,[16],> 100 µM
same,TGI,[17],> 100 µM
same,TGI,[18],> 100 µM
same,TGI,[19],> 100 µM
same,TGI,[20],> 100 µM
same,TGI,[21],> 100 µM
same,TGI,[22],> 100 µM
same,TGI,[23],> 100 µM
same,TGI,[24],> 100 µM
same,TGI,[25],> 100 µM
same,TGI,[26],> 100 µM
same,TGI,[27],> 100 µM
same,TGI,[28],> 100 µM
same,TGI,[29],> 100 µM
same,TGI,[30],> 100 µM
same,TGI,[31],> 100 µM
same,TGI,[32],> 100 µM
same,TGI,[33],> 100 µM
same,TGI,[34],> 100 µM
same,TGI,[35],> 100 µM
same,TGI,[36],> 100 µM
same,TGI,[37],> 100 µM
same,TGI,[38],> 100 µM
same,TGI,[39],> 100 µM
same,TGI,[40],> 100 µM
same,TGI,[41],> 100 µM
same,TGI,[42],> 100 µM
same,TGI,[43],> 100 µM
same,TGI,[44],> 100 µM
same,TGI,[45],> 100 µM
same,TGI,[46],> 100 µM
same,TGI,[47],> 100 µM
same,TGI,[48],> 100 µM
same,TGI,[49],> 100 µM
same,TGI,[50],> 100 µM
same,TGI,[51],> 100 µM
same,TGI,[52],> 100 µM
same,TGI,[53],> 100 µM
same,TGI,[54],> 100 µM
CCOc1ccc(NC(=O)C(=O)CC(=O)C2=C(C)Nc3ccccc3S2)cc1,TGI,[1],> 50 µM
same,TGI,[2],> 50 µM
same,TGI,[3],> 50 µM
same,TGI,[4],> 50 µM
same,TGI,[5],> 50 µM
same,TGI,[6],> 50 µM
same,TGI,[7],> 50 µM
same,TGI,[55],> 50 µM
same,TGI,[8],> 50 µM
same,TGI,[9],> 50 µM
same,TGI,[10],> 50 µM
same,TGI,[11],> 50 µM
same,TGI,[12],> 50 µM
same,TGI,[13],> 50 µM
same,TGI,[14],> 50 µM
same,TGI,[15],> 50 µM
same,TGI,[56],> 50 µM
same,TGI,[17],> 50 µM
same,TGI,[18],> 50 µM
same,TGI,[57],> 50 µM
same,TGI,[58],> 50 µM
same,TGI,[19],> 50 µM
same,TGI,[20],> 50 µM
same,TGI,[21],> 50 µM
same,TGI,[59],> 50 µM
same,TGI,[22],> 50 µM
same,TGI,[23],> 50 µM
same,TGI,[24],> 50 µM
same,TGI,[27],> 50 µM
same,TGI,[28],> 50 µM
same,TGI,[29],> 50 µM
same,TGI,[30],> 50 µM
same,TGI,[31],> 50 µM
same,TGI,[32],> 50 µM
same,TGI,[33],> 50 µM
same,TGI,[34],> 50 µM
same,TGI,[35],> 50 µM
same,TGI,[36],> 50 µM
same,TGI,[37],> 50 µM
same,TGI,[38],> 50 µM
same,TGI,[39],> 50 µM
same,TGI,[40],> 50 µM
same,TGI,[41],> 50 µM
same,TGI,[42],> 50 µM
same,TGI,[44],> 50 µM
same,TGI,[45],> 50 µM
same,TGI,[47],> 50 µM
same,TGI,[48],> 50 µM
same,TGI,[49],> 50 µM
same,TGI,[50],> 50 µM
same,TGI,[51],> 50 µM
same,TGI,[52],> 50 µM
same,TGI,[53],> 50 µM
